# Source: PMC6945062, “Aβ43‐producing PS1 FAD mutants cause altered substrate interactions and respond to γ‐secretase modulation” (EMBO Reports, 2019)
# Key:
# [1] = tested on: PS1 WT or FAD mutant γ‐secretase; assay: ELISA of Aβ species in conditioned media of HEK293/sw cells overexpressing WT or mutant PS1; assay type: cell-based, human
# Protocol: For GSM treatments, the cells were grown to a confluence of 70–80%. Thereafter, medium was changed to fresh medium containing either DMSO vehicle control or GSM at the indicated concentration and the cells were incubated for 16–18 h before Aβ analysis of conditioned medium. […] Mouse N2a cells stably overexpressing swAPP were cultured in DMEM (high glucose) supplemented with 10% FCS and 1 mM sodium pyruvate and treated with GSM as described above.
# (§1) Immunoblot analysis of PS1 and PS2, NCT, full‐length APP, C‐terminal APP fragments, secreted APPs, and Aβ was performed as described 52. To analyze GSM dose responses and determine IC50 values for Aβ42 inhibition, secreted Aβ species of HEK293/sw cells were analyzed by sandwich immunoassay (MSD) using SULFO‐tagged C‐terminal specific antibodies to Aβ38, Aβ40, and Aβ42 as described before 26 or, in case of H4/sw and N2a/sw cells by an Aβ42 AlphaLISA immunoassay kit according to the instructions of the supplier (PerkinElmer). Notch1 cleavage reporter assay was carried out as described 51. GSM‐mediated changes of secreted Aβ species in conditioned medium of PS1 WT or mutant expressing HEK293/sw cells were quantified by ELISA using end‐specific C‐terminal antibodies to Aβ38, Aβ40, Aβ42, and Aβ43 obtained from IBL as described previously 16. Mass spectrometry analysis of secreted Aβ species was performed after immunoprecipitation using antibody 4G8 as described previously 17. Individual Aβ species were analyzed by immunoblotting, using Tris–Bicine urea SDS–PAGE 53. To improve the separation of longer Aβ species (e.g., Aβ42/43), the separation gel was adjusted to 8% acrylamide and 8 M urea. Aβ37 and Aβ38 generated in cell‐free γ‐secretase assays were analyzed by sandwich immunoassay (MSD) as above using SULFO‐tagged species‐specific antibodies. AICD generation in these assays was analyzed by immunoblotting with Penta‐His antibody after sample separation on 10–20% Tris–Tricine gels (Invitrogen). Protein bands from immunoblots were quantified using the LAS‐4000 image reader (Fujifilm Life Science) and Multi‐Gauge V3.0 software for analysis.
# [2] = tested on: γ‐secretase (total Aβ secretion in HEK293/sw cells); assay: Immunoblot analysis of total Aβ in conditioned media of HEK293/sw cells; assay type: cell-based, human
# Protocol: (§2) Single‐cell clones of HEK293 cells stably co‐expressing swAPP with WT and mutant PS1 constructs were cultured as described 50. For GSM treatments, the cells were grown to a confluence of 70–80%. Thereafter, medium was changed to fresh medium containing either DMSO vehicle control or GSM at the indicated concentration and the cells were incubated for 16–18 h before Aβ analysis of conditioned medium. Single‐cell clones of H4 overexpressing swAPP and HEK293‐based Notch1 reporter cell lines were cultured and treated with GSM as described 51. […]
# (§3) Immunoblot analysis of PS1 and PS2, NCT, full‐length APP, C‐terminal APP fragments, secreted APPs, and Aβ was performed as described 52. To analyze GSM dose responses and determine IC50 values for Aβ42 inhibition, secreted Aβ species of HEK293/sw cells were analyzed by sandwich immunoassay (MSD) using SULFO‐tagged C‐terminal specific antibodies to Aβ38, Aβ40, and Aβ42 as described before 26 or, in case of H4/sw and N2a/sw cells by an Aβ42 AlphaLISA immunoassay kit according to the instructions of the supplier (PerkinElmer). […] GSM‐mediated changes of secreted Aβ species in conditioned medium of PS1 WT or mutant expressing HEK293/sw cells were quantified by ELISA using end‐specific C‐terminal antibodies to Aβ38, Aβ40, Aβ42, and Aβ43 obtained from IBL as described previously 16. […]
# [3] = Mouse microsomal clearance; assay type: in vitro ADME; conditions: mouse microsomes, read-out: CLmicr mouse microsomal clearance
# Source text: (§4) ^aLogD= logarithm of the octanol-water distribution coefficient at pH 7.4; ^bPAMPA: Parallel artificial membrane parallel assay; ^cCLmicr (h/m): human/mouse microsomal clearance
# Notch1 cleavage = assay: HEK293 cell‐based Notch1 luciferase reporter assay; conditions: Homo sapiens; HEK293‐based Notch1 luciferase reporter cell line; n = 2
# Protocol: as §2, §3
# [4] = tested on: CHAPSO‐solubilized γ‐secretase; assay: Cell‐free γ‐secretase assay with recombinant C100‐His6 (AICD generation); assay type: biochemical, human; conditions: 2.5 μM, WT and mutant PS1
# Protocol: as §1, with “Mass spectrometry analysis of secreted Aβ species was performed after immunoprecipitation using antibody 4G8 as described previously 17.” left out, “To improve the separation of longer Aβ species (e.g., Aβ42/43), the separation gel was adjusted to 8% acrylamide and 8 M urea.” left out, “analysis. […]” for “analysis.”
# [5] = tested on: PS1 WT or FAD mutant γ‐secretase; assay: Mass spectrometry analysis of Aβ species from HEK293/sw cells overexpressing WT or mutant PS1; assay type: cell-based, human; conditions: all mutants, 500 nM
# Protocol: as §2, §3
# [6] = LogD (octanol-water distribution coefficient); assay type: physicochemical; conditions: pH 7.4
# Source text: as §4
# [7] = tested on: C99–PS1 interaction (CHAPSO‐solubilized γ‐secretase); assay: C99 V44Bpa photocrosslinking to PS1 in CHAPSO lysates; assay type: binding, human
# Protocol: Bpa‐containing C99‐based γ‐secretase substrates were prepared as described previously 22. CHAPSO‐lysates were prepared from HEK293/sw cells co‐expressing either PS1 WT or PS1 mutants. Photocrosslinking was performed as described before 22. Crosslinking of the substrates was analyzed by immunoblotting using antibodies against the PS1 NTF as described 22. For substrate crosslinking experiments in the presence of RO7019009, the cell lysates were pre‐incubated for 30 min on ice with RO7019009 or DMSO vehicle before the addition of C99 V44Bpa and subsequent photocrosslinking.
# Solubility = assay type: physicochemical
# Source text: Supplement EMBR-21-e47996-s003.docx, table 1: Table EV1. RO7019009 key physicochemical and pharmacokinetic properties predicting CNS drug-likeness | column: Solubility (µg/ml)
# PAMPA permeability = assay type: in vitro ADME
# Source text: as §4
# [8] = Human microsomal clearance; assay type: in vitro ADME; conditions: human microsomes, read-out: CLmicr human microsomal clearance
# Source text: as §4
# C99 V44Bpa [9] = assay: photocrosslinking of C99 V44Bpa to PS1 NTF, immunoblot quantitation; conditions: box plot median, n = 7–11 biological replicates, read off a plot
# C99 V44Bpa [10] = assay: photocrosslinking of C99 V44Bpa to full-length PS1, immunoblot quantitation; conditions: box plot median, n = 7–11 biological replicates, read off a plot
# [11] = PS1 L166P mutant, HEK293/sw cells
# [12] = PS1 R278I and L166P mutants, HEK293/sw cells
# [13] = PS1 R278I mutant, HEK293/sw cells
# [14] = RO7019009 50 nM, parent: est. 1.0
# [15] = RO7019009 500 nM, parent: est. 0.90
# [16] = RO7019009 2500 nM, parent: est. 0.49
Compound,"other: V44 CL efficiency (Rel. to DMSO-treated), median (C99 V44Bpa [9]; [14])","other: V44 CL efficiency (Rel. to DMSO-treated), median (C99 V44Bpa [9]; [15])","other: V44 CL efficiency (Rel. to DMSO-treated), median (C99 V44Bpa [9]; [16])","other: V44 CL efficiency (Rel. to DMSO-treated), median (C99 V44Bpa [10]; RO7019009 50 nM)","other: V44 CL efficiency (Rel. to DMSO-treated), median (C99 V44Bpa [10]; RO7019009 500 nM)","other: V44 CL efficiency (Rel. to DMSO-treated), median (C99 V44Bpa [10]; RO7019009 2500 nM)",other results
CC(C)CC[C@H](c1ccc(Cl)cc1)N1CC[C@@H](CC(=O)O)C[C@H]1c1ccc(C(F)(F)F)cc1 [GSM‐1],,,,,,,"Aβ43 production [1, 11]: only poorly, if at all; Aβ42 levels [1, 12]: remained unaffected; Aβ43 production [1, 13]: weakly reduced"
Cc1nsc(N2C[C@H]3CC[C@@H](C2)[C@@H]3Nc2nc3c(-c4ccc(F)c(F)c4F)cccn3n2)n1 [RO7019009],,,,,,,"total Aβ levels [2]: did not reduce; microsomal CLint [3]: < 10 µL/min/mg; IC50 (Notch1 cleavage): > 10 µM; total AICD generation [4]: not or only marginally reduced; Aβ40 levels [5]: nearly complete reduction; logD [6]: 4; crosslinking of C99 V44Bpa to PS1 ([7]; PS1 Y256S and R278I mutants): unchanged crosslinking; crosslinking of C99 V44Bpa to PS1 NTF ([7]; WT PS1, increasing concentrations): reduced; solubility (Solubility): 3 µg/mL; PAMPA (permeability) (PAMPA permeability): High; microsomal CLint [8]: < 10 µL/min/mg; Aβ42 levels ([1]; PS1 L166P mutant, 50 to 500 nM): remained largely unaffected; Aβ42‐lowering response ([1]; PS1 V261F and R278I mutants, 50 to 500 nM): partially resistant; Aβ42 levels ([1]; V261F, R278I and L166P mutants, 500 nM): small, yet significant, reproducible reduction; generation of Aβ43 ([1]; all PS1 mutants, 50 to 500 nM): reduced the generation of Aβ43 for all mutants"
COc1cc(Nc2cc(Cc3ccc(Cl)cc3)cc(C(C)(C)O)c2)ccc1-n1cnc(C)c1 [RO‐02],,,,,,,"Aβ43 production [1, 11]: only poorly, if at all; Aβ42 levels [1, 12]: remained unaffected; Aβ43 production [1, 13]: weakly reduced"
presenilin 1 (PS1) WT (from UniProt P49768) G382A,0.93,0.87,0.67,,,,
presenilin 1 (PS1) WT (from UniProt P49768) L166P,1,0.93,0.73,,,,
presenilin 1 (PS1) WT (from UniProt P49768) L435F,,,,1,0.78,0.6,
presenilin 1 (PS1) WT (from UniProt P49768) M292D,,,,1.1,0.92,0.65,
presenilin 1 (PS1) WT (from UniProt P49768) R278I,,,,1,1,0.92,
presenilin 1 (PS1) WT (from UniProt P49768) V261F,,,,0.95,0.65,0.62,
presenilin 1 (PS1) WT (from UniProt P49768) Y256S,1.1,0.88,0.95,,,,
